Measurements: ChEMBL document CHEMBL1201862, “PubChem BioAssay data set” (2004)
Calls of active or inactive are those of the source.

Assays:
[1] = target: T1, Beta-2 adrenergic receptor (Homo sapiens, UniProt P07550); test: beta2AR agonists driving receptor internalization, dose response, cell-based, FAP fluorogen, flow cytometry, cherry pick 1 (AID 588763); assay type: functional
[2] = target: T1, Beta-2 adrenergic receptor; test: Dose response for HTS for Beta-2AR agonists via FAP method from Powderset3.; assay type: functional
[3] = target: Beta-lactamase (Pseudomonas aeruginosa, UniProt Q79MP6);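 further: biochemical dose-response test of metallo-beta-lactamase enzyme inhibition, read out by epi-absorbance; purified recombinant IMP-1 metallo-beta-lactamase with nitrocefin as substrate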
[4] = target: Beta-lactamase (Salmonella choleraesuis (strain SC-B67), UniProt Q5J463)
[5] = target: T2, Nucleotide-binding oligomerization domain-containing protein 1 (Homo sapiens, UniProt Q9Y239); test: NOD1 signaling inhibitors, SAR follow-up, revised (AID 2333); assay type: functional
T2 sequence (Q9Y239 whole entry): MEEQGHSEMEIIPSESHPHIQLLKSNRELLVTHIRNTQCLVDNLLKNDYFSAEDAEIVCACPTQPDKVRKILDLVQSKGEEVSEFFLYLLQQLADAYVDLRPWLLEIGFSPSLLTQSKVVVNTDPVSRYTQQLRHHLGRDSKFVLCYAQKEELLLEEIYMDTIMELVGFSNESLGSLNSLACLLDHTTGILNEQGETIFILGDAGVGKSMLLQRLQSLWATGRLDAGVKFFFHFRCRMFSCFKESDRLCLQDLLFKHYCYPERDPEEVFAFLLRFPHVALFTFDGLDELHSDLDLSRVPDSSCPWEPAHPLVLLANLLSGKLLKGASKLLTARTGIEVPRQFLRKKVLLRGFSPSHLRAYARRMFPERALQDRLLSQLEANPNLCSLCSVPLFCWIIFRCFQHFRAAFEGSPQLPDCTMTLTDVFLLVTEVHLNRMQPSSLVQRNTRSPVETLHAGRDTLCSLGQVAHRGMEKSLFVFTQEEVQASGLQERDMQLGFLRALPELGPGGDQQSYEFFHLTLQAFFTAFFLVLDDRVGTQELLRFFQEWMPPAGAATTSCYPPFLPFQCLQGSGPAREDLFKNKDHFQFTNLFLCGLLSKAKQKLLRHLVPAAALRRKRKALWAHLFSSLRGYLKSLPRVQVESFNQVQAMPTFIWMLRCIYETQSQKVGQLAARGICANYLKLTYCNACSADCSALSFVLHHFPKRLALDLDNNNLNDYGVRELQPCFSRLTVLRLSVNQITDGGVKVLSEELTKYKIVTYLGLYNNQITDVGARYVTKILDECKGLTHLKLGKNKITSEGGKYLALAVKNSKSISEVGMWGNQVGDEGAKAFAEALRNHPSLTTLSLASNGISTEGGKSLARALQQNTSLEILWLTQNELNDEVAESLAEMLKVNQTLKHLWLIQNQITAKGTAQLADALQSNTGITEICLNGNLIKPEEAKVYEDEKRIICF

[6] = target: Prothrombin (Bos taurus, UniProt P00735); test: thrombin inhibition, dose response, biochemical, fluorescence polarization, uHTS hits (AID 602369); assay type: functional
[7] = target: Nucleotide-binding oligomerization domain-containing protein 2 (Homo sapiens, UniProt Q9HC29); test: NOD2 signaling inhibitors, cell-based, luminescence, uHTS, HEK293 (AID 1566); assay type: functional
[8] = test system: HEK293; test: cells; assay type: functional, cell-based; conditions: Homo sapiens
[9] = target: Tumor necrosis factor (Homo sapiens, UniProt P01375); test: TNFa-triggered NF-kB activation inhibitors, SAR follow-up, cell-based, revised (AID 2337); assay type: functional
[10] = target: 26S proteasome non-ATPase regulatory subunit 14 (Homo sapiens, UniProt O00487); test: inhibition of proteasome subunit RPN11 – biochemical, fluorescence polarization, uHTS hits, confirmation (AID 602368); assay type: functional
[11] = test system: HEK293; test: NOD1 signaling inhibitors, primary screen, cell-based, luminescence, uHTS (AID 1578); assay type: functional; conditions: Homo sapiens
[12] = HepG2 cell cytotoxicity, dose response, cytotoxicity control for Shn3 inhibitor project, CellTiter-Glo, cherry-picked (AID 624134); assay type: functional, cell-based
[13] = test system: HEK293; test: NOD2 signaling inhibitors in MDP-stimulated cells, cell-based, uHTS, luminescence (AID 2001); assay type: functional; conditions: Homo sapiens
[14] = target: 72 kDa type IV collagenase (Homo sapiens, UniProt P08253); test: Dose Response validation of uHTS RPN11 inhibitor hits using a MMP-2 Fluorescence assay.; assay type: functional
[15] = control 3'UTR Renilla luciferase suppression, dose response, counter-screen for Shn3 inhibitor project, cell-based, Clone20-Shn3RL, cherry-picked (AID 624133); assay type: functional
[16] = test system: INS1; test: beta cell apoptosis inhibitors, cytokine rescue, dose response, luminescence, retest (AID 449756); assay type: functional, cell-based; conditions: Rattus norvegicus;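 further: cell death triggered by IL-1 beta plus TNF-alpha plus IFN-gamma mixture; protective hits raise ATP signal compared with cytokine alone wells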
[17] = Shn3 3'UTR reporter inhibitors, dose response, cell-based, Clone20 osteoblasts, firefly luciferase, cherry-picked (AID 624132); assay type: functional;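 further: firefly luciferase luminescence from reporter carrying the Shn3 3'UTR in osteoblasts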
[18] = test system: HEK293; test: cells; assay type: functional, cell-based; conditions: Homo sapiens; remark: listed apart in the source
[19] = test system: HEK293; test: cells; assay type: functional, cell-based; conditions: Homo sapiens; remark: listed apart in the source
[20] = test system: HEK293; test: cells; conditions: Homo sapiens
[21] = test system: HEK293; test: inhibitors of LMP1-driven NF-kB reporter, dose response, cell-based, HEK293, luciferase, cherry-pick (AID 588343); assay type: functional; conditions: Homo sapiens
[22] = target: T3, Sentrin-specific protease 8 (Homo sapiens, UniProt Q96LD8); assay type: functional
T3 sequence (Q96LD8 whole entry): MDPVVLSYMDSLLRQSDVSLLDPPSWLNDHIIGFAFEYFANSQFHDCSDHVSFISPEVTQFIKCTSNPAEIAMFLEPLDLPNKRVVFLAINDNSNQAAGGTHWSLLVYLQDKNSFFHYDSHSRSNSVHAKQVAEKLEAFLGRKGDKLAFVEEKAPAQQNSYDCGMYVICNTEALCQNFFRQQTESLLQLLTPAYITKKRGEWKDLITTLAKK

[23] = target: T3, Sentrin-specific protease 8; assay type: functional; remark: listed apart in the source
[24] = HEK293T cell cytotoxicity, dose response, cytotoxicity control for HIV Vif inhibitor project, cherry-picks (AID 652208); assay type: functional, cell-based

T1 sequence (P07550 whole entry): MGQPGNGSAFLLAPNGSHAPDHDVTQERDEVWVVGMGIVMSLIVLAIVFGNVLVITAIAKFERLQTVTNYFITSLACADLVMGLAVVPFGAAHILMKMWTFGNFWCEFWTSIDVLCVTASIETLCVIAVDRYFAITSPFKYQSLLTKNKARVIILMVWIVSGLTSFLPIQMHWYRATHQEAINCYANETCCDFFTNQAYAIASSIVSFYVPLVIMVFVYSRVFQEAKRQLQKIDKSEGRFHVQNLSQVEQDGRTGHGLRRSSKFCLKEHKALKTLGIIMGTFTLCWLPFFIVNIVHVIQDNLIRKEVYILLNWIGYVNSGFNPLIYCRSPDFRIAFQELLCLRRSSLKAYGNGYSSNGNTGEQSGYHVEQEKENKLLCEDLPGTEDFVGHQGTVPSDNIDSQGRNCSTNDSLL
Sequence of Beta-lactamase (Pseudomonas aeruginosa, UniProt Q79MP6) (Q79MP6 whole entry): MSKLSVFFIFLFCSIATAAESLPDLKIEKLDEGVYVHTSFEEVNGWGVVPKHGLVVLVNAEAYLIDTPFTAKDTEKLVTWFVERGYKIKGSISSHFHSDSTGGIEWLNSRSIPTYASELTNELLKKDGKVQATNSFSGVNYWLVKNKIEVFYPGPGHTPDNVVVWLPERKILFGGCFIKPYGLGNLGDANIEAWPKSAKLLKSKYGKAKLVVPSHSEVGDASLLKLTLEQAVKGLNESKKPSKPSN
Sequence of 26S proteasome non-ATPase regulatory subunit 14 (O00487 whole entry): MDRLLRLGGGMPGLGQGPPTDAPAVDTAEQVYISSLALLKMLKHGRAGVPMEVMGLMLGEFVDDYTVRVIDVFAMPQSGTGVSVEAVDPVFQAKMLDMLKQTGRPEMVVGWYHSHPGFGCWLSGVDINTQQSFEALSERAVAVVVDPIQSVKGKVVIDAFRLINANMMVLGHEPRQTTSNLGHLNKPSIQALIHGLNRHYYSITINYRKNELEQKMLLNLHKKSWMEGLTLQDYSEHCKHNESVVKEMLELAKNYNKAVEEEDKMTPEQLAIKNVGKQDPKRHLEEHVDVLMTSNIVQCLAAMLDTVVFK
Sequence of Tumor necrosis factor (P01375 whole entry): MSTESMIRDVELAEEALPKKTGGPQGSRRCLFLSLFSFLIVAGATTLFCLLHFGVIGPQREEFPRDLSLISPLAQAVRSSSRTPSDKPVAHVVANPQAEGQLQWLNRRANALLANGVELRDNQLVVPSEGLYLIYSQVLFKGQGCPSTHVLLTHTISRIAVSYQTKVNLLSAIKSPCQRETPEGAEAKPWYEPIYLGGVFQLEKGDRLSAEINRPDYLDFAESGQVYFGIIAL
Sequence of 72 kDa type IV collagenase (P08253 whole entry): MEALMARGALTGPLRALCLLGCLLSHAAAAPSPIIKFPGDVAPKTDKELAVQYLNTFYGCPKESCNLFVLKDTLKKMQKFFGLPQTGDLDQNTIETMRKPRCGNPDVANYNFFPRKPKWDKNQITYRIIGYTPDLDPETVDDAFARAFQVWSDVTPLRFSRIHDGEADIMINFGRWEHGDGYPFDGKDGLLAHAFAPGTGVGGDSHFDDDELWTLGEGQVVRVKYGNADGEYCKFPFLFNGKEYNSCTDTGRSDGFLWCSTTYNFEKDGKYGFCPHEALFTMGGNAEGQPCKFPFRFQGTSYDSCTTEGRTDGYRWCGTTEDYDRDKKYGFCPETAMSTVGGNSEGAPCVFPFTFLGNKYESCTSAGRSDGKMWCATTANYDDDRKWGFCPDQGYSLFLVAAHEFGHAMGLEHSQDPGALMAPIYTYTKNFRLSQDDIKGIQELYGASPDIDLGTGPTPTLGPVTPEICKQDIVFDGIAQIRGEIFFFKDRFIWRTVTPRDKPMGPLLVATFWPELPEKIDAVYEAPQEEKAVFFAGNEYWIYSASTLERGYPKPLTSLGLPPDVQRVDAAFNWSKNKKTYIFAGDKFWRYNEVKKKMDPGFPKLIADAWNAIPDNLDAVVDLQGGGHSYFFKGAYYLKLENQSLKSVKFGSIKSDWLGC
Sequence of Beta-lactamase (Salmonella choleraesuis (strain SC-B67), UniProt Q5J463) (Q5J463 whole entry, the tested form may be a part): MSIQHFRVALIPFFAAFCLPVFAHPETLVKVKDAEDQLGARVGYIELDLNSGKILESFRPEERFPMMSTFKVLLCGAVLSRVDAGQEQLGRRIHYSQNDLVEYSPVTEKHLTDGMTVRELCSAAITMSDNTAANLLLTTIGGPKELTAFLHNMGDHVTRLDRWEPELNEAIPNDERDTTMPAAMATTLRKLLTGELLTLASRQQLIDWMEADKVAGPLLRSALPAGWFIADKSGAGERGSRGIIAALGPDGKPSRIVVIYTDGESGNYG
Sequence of Nucleotide-binding oligomerization domain-containing protein 2 (Q9HC29 whole entry, the tested form may be a part): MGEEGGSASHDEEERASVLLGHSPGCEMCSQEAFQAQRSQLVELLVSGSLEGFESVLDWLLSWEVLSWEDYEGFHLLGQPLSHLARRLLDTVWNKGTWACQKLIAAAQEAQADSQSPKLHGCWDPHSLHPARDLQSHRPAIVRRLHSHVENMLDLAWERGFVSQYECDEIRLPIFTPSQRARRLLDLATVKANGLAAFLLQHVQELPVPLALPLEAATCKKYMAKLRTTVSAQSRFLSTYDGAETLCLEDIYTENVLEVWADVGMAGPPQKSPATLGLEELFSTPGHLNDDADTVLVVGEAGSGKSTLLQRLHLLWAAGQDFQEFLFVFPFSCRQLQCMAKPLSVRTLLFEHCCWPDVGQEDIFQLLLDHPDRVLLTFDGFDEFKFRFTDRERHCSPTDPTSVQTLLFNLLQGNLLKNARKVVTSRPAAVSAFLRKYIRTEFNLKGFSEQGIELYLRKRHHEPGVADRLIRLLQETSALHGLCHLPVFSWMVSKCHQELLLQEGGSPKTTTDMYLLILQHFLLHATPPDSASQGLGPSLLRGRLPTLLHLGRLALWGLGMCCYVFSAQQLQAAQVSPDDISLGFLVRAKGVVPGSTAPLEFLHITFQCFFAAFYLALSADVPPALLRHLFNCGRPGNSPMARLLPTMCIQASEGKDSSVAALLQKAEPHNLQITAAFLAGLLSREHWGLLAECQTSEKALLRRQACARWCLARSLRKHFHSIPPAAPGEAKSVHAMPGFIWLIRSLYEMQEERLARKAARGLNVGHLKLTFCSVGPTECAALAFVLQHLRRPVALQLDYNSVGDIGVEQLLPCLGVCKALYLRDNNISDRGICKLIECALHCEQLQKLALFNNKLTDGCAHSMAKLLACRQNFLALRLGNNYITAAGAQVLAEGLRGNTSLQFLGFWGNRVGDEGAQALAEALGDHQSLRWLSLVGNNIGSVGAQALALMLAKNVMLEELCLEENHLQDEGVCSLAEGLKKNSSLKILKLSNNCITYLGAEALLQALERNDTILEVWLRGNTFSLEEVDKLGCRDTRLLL

CC(=O)Nc1ccc(S(=O)(=O)N2CCC(Oc3ccc(-n4cnnn4)cc3)CC2)cc1
active: EC50 [1] 126 nM | EC50 [2] 36.6 nM

CC(=O)Nc1ccc(N2C(=O)c3cccc4c(O)ccc(c34)C2=O)cc1
active: IC50 [4] 7 µM
inactive: IC50 [3] 13.7 µM

Cc1ccc(NC(=O)C2CCN(S(=O)(=O)c3ccc4c(c3)NC(=O)C(C)S4)CC2)cc1Cl (centres undefined)
active: IC50 [5] 2.87 µM | IC50 [6] 46 µM | EC50 [7] 8.36 µM | IC50 [9] 2.84 µM | IC50 [10] 49.4 µM | EC50 [11] 5.35 µM | AC50 [12] 6.82 µM | AC50 [15] 2.48 µM | AC50 [16] 3.7 µM | AC50 [17] 2.83 µM | IC50 [18] 4.25 µM | IC50 [19] 2.72 µM | IC50 [20] 5.08 µM | AC50 [21] 15.3 µM
inactive: IC50 [8] > 20 µM | IC50 [13] 2.94 µM | IC50 [14] > 100 µM

O=C(COC(=O)c1ccc([N+](=O)[O-])o1)NCc1ccc2c(c1)OCO2
active: IC50 [22] 5.11 µM | IC50 [23] 11.1 µM

COc1ccc(S(=O)(=O)Nc2cccc3ccc(O)cc23)cc1
inactive: AC50 [24] > 52 µM
